From US20260242356A1, “BICYCLIC HETEROCYCLIC AMIDE INHIBITORS OF NAv1.8 FOR THE TREATMENT OF PAIN” (priority 2022, published 2026)

Target: T1, human NaV sodium channel α-subunit NaV 1.8 (Homo sapiens, UniProt Q9Y5Y9)
T1 construct: transfected with the full-length cDNA coding for the appropriate human NaV sodium channel α-subunit NaV 1.8; expressed in transfected cells; host or cells: HEK293 cells
Assay: NaV inhibition assay, whole-cell patch-clamp (HEKA EPC 9 amplifier)
Format: cell-based
Settings: not given
Procedure: Electrophysiology experiments were performed on Human Embryonic Kidney 293 cells (HEK) or Chinese hamster ovary cells (CHO) transfected with the full-length cDNA coding for the appropriate human NaV sodium channel α-subunit NaV 1.8. Similarly, experiments are performed on Human Embryonic Kidney 293 cells (HEK) or Chinese hamster ovary cells (CHO) transfected with the full-length cDNA coding for the appropriate human NaV sodium channel α-subunit, including NaV 1.7, NaV 1.6, NaV 1.5, and NaV 1.4.
Sodium currents were measured using the patch-clamp technique in the whole-cell configuration with a HEKA EPC 9 amplifier (HEKA Elektronik Dr. Schulze GmbH, Germany) or can be measured using an IonFlux 16 automated patch clamp system (Fluxion Biosciences, South San Francisco, USA) as previously described by Moran. See, Moran O, Picollo A, Conti F (2003) Tonic and phasic guanidinium toxin-block of skeletal muscle Na channels expressed in Mammalian cells, Biophys J 84(5):2999-3006. For manual patch-clamp experiments, borosilicate glass micropipettes (Sutter Instruments, Novato, CA) were pulled to a tip diameter yielding a resistance of 1.0-2.0 MΩ in the working solutions. The composition of intracellular solution was (in mM): CsF 125, EGTA 10, HEPES 10, NaCl 10, and the pH was adjusted to 7.2 with CsOH. The composition of extracellular solution was (in mM): NaCl 135, KCl 4.5, CaCl2 2, MgCl2 1, HEPES 10, and the pH was adjusted to 7.4 with NaOH. For human NaV 1.8, 0.3-1 μM tetrodotoxin (TTX) was added to the extracellular solution to inhibit native TTX-sensitive current. Peak currents were generally between 0.5-20 nA.
Lyophilized stock of each test article was stored at −20° C., solubilized in DMSO (maximum final concentration 1%) and diluted to the desired concentration with the external solution prior to recording. Current measurements were recorded under continuous perfusion, controlled by syringe pump addition.
The output of the EPC 9 patch-clamp amplifier was filtered with a built-in low-pass, four-pole Bessel filter having a cutoff frequency of 10 kHz and sampled at 20-50 kHz. For both manual and automated recordings, the membrane was kept at a holding potential of between −120 and −80 mV. Pulse stimulation and data acquisition were controlled with the Pulse software (HEKA Elektronik Dr. Schulze GmbH, Germany) or the IonFlux software (Fluxion Biosciences, South San Francisco, USA). All measurements were performed at room temperature (about 20-22° C.). Recordings were made at least 5 min after establishing the whole-cell and voltage-clamp configuration to allow for stabilization of the voltage-dependent properties of the channels. Currents were elicited by 10-50 ms step depolarizations from a holding potential to a value between −40 and +10 mV. Peak currents after channel activation were recorded. […] Data were fit to a four-parameter logistic equation with the Hill slope set to 1 to determine IC50 values and expressed as mean.
For Table 1 and Table 2, all data were measured in HEK cells. Column 1 provides IC50 data for NaV 1.8 as measured using the patch-clamp technique in the whole-cell configuration with a HEKA EPC 9 amplifier, where +++ indicates an IC50 of less than or equal to 20 nM, ++ indicates an IC50 of greater than 20 nM but less that or equal to 100 nM, and + indicates an IC50 of greater than 100 nM but less that or equal to […]. ND means not detectable. NT means not tested.

T1 sequence (Q9Y5Y9 whole entry): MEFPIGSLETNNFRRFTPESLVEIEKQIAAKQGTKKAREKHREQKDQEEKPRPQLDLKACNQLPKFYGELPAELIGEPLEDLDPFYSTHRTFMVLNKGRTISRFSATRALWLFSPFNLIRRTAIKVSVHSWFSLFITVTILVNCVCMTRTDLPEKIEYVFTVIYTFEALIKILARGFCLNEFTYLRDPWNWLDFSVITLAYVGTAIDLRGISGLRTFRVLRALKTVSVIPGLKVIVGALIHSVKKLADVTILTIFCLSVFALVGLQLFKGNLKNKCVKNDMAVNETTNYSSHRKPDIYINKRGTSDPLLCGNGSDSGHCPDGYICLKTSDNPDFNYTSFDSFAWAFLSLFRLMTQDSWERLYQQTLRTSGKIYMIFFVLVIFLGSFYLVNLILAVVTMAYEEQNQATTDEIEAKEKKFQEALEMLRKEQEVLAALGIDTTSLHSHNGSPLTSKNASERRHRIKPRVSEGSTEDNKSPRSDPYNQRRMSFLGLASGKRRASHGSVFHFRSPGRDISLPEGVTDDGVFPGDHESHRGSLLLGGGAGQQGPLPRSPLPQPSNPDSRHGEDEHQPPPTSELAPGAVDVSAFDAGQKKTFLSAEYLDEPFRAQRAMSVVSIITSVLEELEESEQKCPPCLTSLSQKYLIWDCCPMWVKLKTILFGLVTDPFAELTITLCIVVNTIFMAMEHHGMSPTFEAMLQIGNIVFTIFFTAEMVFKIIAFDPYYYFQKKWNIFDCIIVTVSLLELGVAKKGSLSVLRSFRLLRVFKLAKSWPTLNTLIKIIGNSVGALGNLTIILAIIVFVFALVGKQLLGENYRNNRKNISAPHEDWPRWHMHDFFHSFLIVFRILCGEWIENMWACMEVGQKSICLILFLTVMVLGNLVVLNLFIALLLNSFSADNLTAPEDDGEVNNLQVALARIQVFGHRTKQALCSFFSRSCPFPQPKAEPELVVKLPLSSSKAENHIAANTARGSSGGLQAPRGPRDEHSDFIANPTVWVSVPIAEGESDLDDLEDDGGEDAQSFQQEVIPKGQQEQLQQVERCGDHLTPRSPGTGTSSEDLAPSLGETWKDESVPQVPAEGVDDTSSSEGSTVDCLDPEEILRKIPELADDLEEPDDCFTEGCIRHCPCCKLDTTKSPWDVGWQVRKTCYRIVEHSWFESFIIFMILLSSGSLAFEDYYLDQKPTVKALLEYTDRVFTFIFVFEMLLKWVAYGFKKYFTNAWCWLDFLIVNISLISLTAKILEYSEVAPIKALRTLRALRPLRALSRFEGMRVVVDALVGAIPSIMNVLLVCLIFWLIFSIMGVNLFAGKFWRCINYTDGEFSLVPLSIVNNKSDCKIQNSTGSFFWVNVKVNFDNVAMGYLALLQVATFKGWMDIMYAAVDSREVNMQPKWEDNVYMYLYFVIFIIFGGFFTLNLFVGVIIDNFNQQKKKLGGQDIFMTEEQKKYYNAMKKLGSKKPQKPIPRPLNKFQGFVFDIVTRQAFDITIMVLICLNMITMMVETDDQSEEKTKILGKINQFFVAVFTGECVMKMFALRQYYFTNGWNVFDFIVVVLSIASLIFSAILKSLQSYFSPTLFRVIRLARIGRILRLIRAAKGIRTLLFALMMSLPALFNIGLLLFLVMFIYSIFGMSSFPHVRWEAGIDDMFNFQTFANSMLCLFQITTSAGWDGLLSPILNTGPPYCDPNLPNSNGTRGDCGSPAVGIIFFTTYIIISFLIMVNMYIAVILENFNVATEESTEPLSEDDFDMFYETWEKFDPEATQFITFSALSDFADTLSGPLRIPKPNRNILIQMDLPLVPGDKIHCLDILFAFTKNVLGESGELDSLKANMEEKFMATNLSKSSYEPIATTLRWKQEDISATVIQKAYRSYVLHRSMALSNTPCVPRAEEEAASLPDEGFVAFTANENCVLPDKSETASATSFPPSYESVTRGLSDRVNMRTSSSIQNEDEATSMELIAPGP

| Compound | IC50 [nM] |
| --- | --- |
| CS(=N)(=O)c1cccc(NC(=O)c2cc3ccccc3nc2N2CCCC(F)(F)CC2)c1 (stereo not drawn) [Compound 1, 2-(4,4-difluoroazepan-1-yl)-N-(3-(S-methylsulfonimidoyl)phenyl)quinoline-3-carboxamide] | < 20 |
| NS(=O)(=O)c1cccc(NC(=O)c2cc3ccccc3nc2N2CCCC(F)(F)CC2)c1 [Compound 2, 2-(4,4-difluoroazepan-1-yl)-N-(3-sulfamoylphenyl)quinoline-3-carboxamide] | < 20 |
| Nc1noc2ccc(NC(=O)c3cc4ccccc4nc3N3CCCC(F)(F)CC3)cc12 [Compound 3, N-(3-aminobenzo[d]isoxazol-5-yl)-2-(4,4-difluoroazepan-1-yl)quinoline-3-carboxamide] | < 20 |
| NC(=O)c1cccc(NC(=O)c2cc3ccccc3nc2N2CCCC(F)(F)CC2)c1 [Compound 4, N-(3-carbamoylphenyl)-2-(4,4-difluoroazepan-1-yl)quinoline-3-carboxamide] | < 20 |
| CC1CN(c2nc3ccccc3cc2C(=O)Nc2cccc(S(N)(=O)=O)c2)CCC1(F)F (stereo not drawn) [Compound 5, 2-(4,4-difluoro-3-methylpiperidin-1-yl)-N-(3-sulfamoylphenyl)quinoline-3-carboxamide] | < 20 |
| CS(=O)(=O)c1cccc(NC(=O)c2nc3ccccc3nc2N2CCCC(F)(F)CC2)c1 [Compound 6, 3-(4,4-difluoroazepan-1-yl)-N-(3-methanesulfonylphenyl)quinoxaline-2-carboxamide] | < 20 |
| CS(=N)(=O)c1cccc(NC(=O)c2nc3ccccc3nc2N2CCCC(F)(F)CC2)c1 (stereo not drawn) [Compound 7, 3-(4,4-difluoroazepan-1-yl)-N-(3-(S-methylsulfonimidoyl)phenyl)quinoxaline-2-carboxamide] | 20 to 100 |
| NS(=O)(=O)c1cccc(NC(=O)c2nc3ccccc3nc2N2CCCC(F)(F)CC2)c1 [Compound 8, 3-(4,4-difluoroazepan-1-yl)-N-(3-sulfamoylphenyl)quinoxaline-2-carboxamide] | 20 to 100 |
| NS(=O)(=O)c1cccc(NC(=O)c2cc3cc(F)ccc3nc2N2CCCC(F)(F)CC2)c1 [Compound 9, 2-(4,4-difluoroazepan-1-yl)-6-fluoro-N-(3-sulfamoylphenyl)quinoline-3-carboxamide] | 20 to 100 |
| NS(=O)(=O)c1cccc(NC(=O)c2cc3cc(F)c(F)cc3nc2N2CCCC(F)(F)CC2)c1 [Compound 10, 2-(4,4-difluoroazepan-1-yl)-6,7-difluoro-N-(3-sulfamoylphenyl)quinoline-3-carboxamide] | 20 to 100 |
| COc1ccc2nc(N3CCCC(F)(F)CC3)c(C(=O)Nc3cccc(S(N)(=O)=O)c3)cc2c1 [Compound 11, 2-(4,4-difluoroazepan-1-yl)-6-methoxy-N-(3-sulfamoylphenyl)quinoline-3-carboxamide] | < 20 |
| NS(=O)(=O)c1cccc(NC(=O)c2cc3cc(Cl)ccc3nc2N2CCCC(F)(F)CC2)c1 [Compound 12, 6-chloro-2-(4,4-difluoroazepan-1-yl)-N-(3-sulfamoylphenyl)quinoline-3-carboxamide] | < 20 |
| NS(=O)(=O)c1cccc(NC(=O)c2cc3ccc(Cl)cc3nc2N2CCCC(F)(F)CC2)c1 [Compound 13, 7-chloro-2-(4,4-difluoroazepan-1-yl)-N-(3-sulfamoylphenyl)quinoline-3-carboxamide] | 20 to 100 |
| NC(=O)c1cccc(NC(=O)c2nc3ccccc3nc2N2CCCC(F)(F)CC2)c1 [Compound 14, N-(3-carbamoylphenyl)-3-(4,4-difluoroazepan-1-yl)quinoxaline-2-carboxamide] | 20 to 100 |
| NS(=O)(=O)c1cccc(NC(=O)c2cc3ccncc3nc2N2CCCC(F)(F)CC2)c1 [Compound 15, 2-(4,4-difluoroazepan-1-yl)-N-(3-sulfamoylphenyl)-1,7-naphthyridine-3-carboxamide] | < 20 |
| COc1ccc2cc(C(=O)Nc3cccc(S(N)(=O)=O)c3)c(N3CCCC(F)(F)CC3)nc2c1 [Compound 16, 2-(4,4-difluoroazepan-1-yl)-7-methoxy-N-(3-sulfamoylphenyl)quinoline-3-carboxamide] | 20 to 100 |
| NS(=O)(=O)c1cccc(NC(=O)c2cc3cc(C(F)(F)F)ccc3nc2N2CCCC(F)(F)CC2)c1 [Compound 17] | < 20 |
| NS(=O)(=O)c1cccc(NC(=O)c2cc3c(nc2N2CCCC(F)(F)CC2)CCCC3)c1 [Compound 18, 2-(4,4-difluoroazepan-1-yl)-N-(3-sulfamoylphenyl)-5,6,7,8-tetrahydroquinoline-3-carboxamide] | 20 to 100 |
| NS(=O)(=O)c1cccc(NC(=O)c2cc3cnccc3nc2N2CCCC(F)(F)CC2)c1 [Compound 20, 2-(4,4-difluoroazepan-1-yl)-N-(3-sulfamoylphenyl)-1,6-naphthyridine-3-carboxamide] | 20 to 100 |
| NS(=O)(=O)c1cccc(NC(=O)c2cc3ccc(F)cc3nc2N2CCCC(F)(F)CC2)c1 [Compound 28, 2-(4,4-difluoroazepan-1-yl)-7-fluoro-N-(3-sulfamoylphenyl)quinoline-3-carboxamide] | < 20 |

Same assay, conditions: HEK cells transfected with human NaV 1.8; whole-cell patch-clamp; 0.3-1 μM TTX in extracellular solution; room temperature

| Compound | NaV1.8 IC50 (nM) |
| --- | --- |
| NS(=O)(=O)c1cccc(NC(=O)c2cc3cccnc3nc2N2CCCC(F)(F)CC2)c1 [Compound 19, 2-(4,4-difluoroazepan-1-yl)-N-(3-sulfamoylphenyl)-1,8-naphthyridine-3-carboxamide] | + (+ indicates an IC50 of greater than 100 nM but less that or equal to 1.5 M) |
